Tested on: rabbit corneas thermally burned (corneal scarring, fibroblast proliferation, neovascularization)
Experiment: Thermal corneal burn in rabbit eyes, topical eye drops for two weeks, blind histopathology (H&E)
Type: in vivo
Procedure: 26 rabbits were tranquilized with acetylpromazine maleate, 16 mg/kg intramuscularly. 2% lidocaine HCl eye drops were instilled in each eye for corneal anesthesia. Once the corneas were anesthetized, an eyelid speculum was inserted and the lids were then separated. The corneas of each eye were thermally coagulated with the tip of a battery-powered ophthalmic cautery. […] Two drops of solution A, B or C were instilled in designated treated eyes every 15 min for 6 hrs., then every 2 hrs. for 12 hrs. Following this, two eye drops of the same solutions were instilled four times a day. Daily eye examination was performed and photographs were taken. Two weeks after treatment the rabbits were sacrificed by […] intracardiac injection of T-61 ([…]). Subsequently, the rabbits, eyeballs were enucleated, the globes placed in Bounri's solution (10% formalin solution) and submitted for histopathology cell analysis. The eyes were fixed with 10% formalin solution and labeled right (R) and left (L), as appropriate sectioned and stained with H & E (hematoxylin & eosin stains). Histological sections were read by a pathologist without knowledge of the previously undertaken experimental procedure (blind test).

COC(=O)CCC(=O)N[C@@H](C)C(=O)N[C@@H](CCCCNC(=O)OCc1ccccc1)C(=O)N1CCC[C@H]1C(=O)CN(C(=O)Sc1nnnn1-c1ccccc1)C(C)C [Compound 2, S-(1-phenyl-5-tetrazoyl)-N-[methoxysuccinyl-alanyl-(Nε -Carbobenzoxy)lysylprolylmethyl]-N-isopropyl-thiocarbamate]
Microscopic description of rabbit eyes: intensity of the reaction compared with the untreated specimen (Solution B, 10 μg/ml in normal saline with 1.4% w/v polyvinyl alcohol, eye drops, two weeks after corneal burn): The reaction is not quite as intense
Protection against scarring due to corneal burns (magnitude) (Solution C, 50 μg/ml, versus untreated eyes): tenfold
Overall effect of ophthalmic solutions on fibrosis, neovascularization and inflammation in corneal wound-healing (ophthalmic solutions B or C, rabbit corneal burn): effective in reducing fibrosis, neovascularization and inflammation
